Source: patent publication US20240269206A1, “AMANITA […] EXTRACTS AND COMPOUNDS AND THEIR […] […] USE” (priority 2021, published 2024)
Where two headings read alike, the source gives them in different places.

Tests used:
[1] = system: male CD [Crl:CD(SD)] rats; experiment: Conditioned place preference (CPP) study, abuse liability assessment; assay type: in vivo, rat; conditions: for Conditioned place preference score for CS+ (percentage of time in the 2 conditioning compartments), Mean / Conditioned place preference score for CS+, LSMean (least squares mean): 20 mg/kg oral gavage (positive control)
Experimental: Purpose: A conditioned place preference (CPP) study was conducted in rats to evaluate the abuse potential of exemplary aqueous A. muscaria extract AME-1. The CPP study is a standard behavioral model used for studying the reward and aversive effects of a compound and is designed to determine the reinforcing properties of drugs of abuse using classical Pavlovian conditioning. Accordingly, the CPP paradigm provides for a rapid measurement of the positive reinforcing or aversive properties of a test sample, in this case, AME-1.
Methods: Four treatment groups of 8 male CD® [Crl:CD®(SD)] rats were exposed to unique environmental cues associated with a conditioned stimuli (CS+) or saline (CS−) in a 3-chamber straight alleyway system. Following a habituation phase (Week −1) during which compartment preference was determined for each animal, the conditioning phase (Week 1 and Week 2) was conducted during which compartments 1 and 3 were paired with the test and control articles or saline. Saline (CS−) and test/control articles (CS+, at 800 and 1100 mg/kg of exemplary A. muscaria aqueous extract AME-1 or 20 mg/kg cocaine) were administered via oral gavage at a dose volume of 5 mL/kg. After two sets of conditioning trials during the conditioning phase, each rat was retested for free-choice side preference (Days 5 and 12). Each rat received eight stimulus environmental pairing sessions (e.g., four test article and four saline) and two CPP test sessions (T1, T2). The study design was as follows:
The following parameters and endpoints were evaluated in this study: mortality, clinical signs, body weights, and CPP testing. During CPP testing sessions, the following parameters were assessed: 1) Total time spent in the black and/or white (Compartment 1 and 3) compartments, which were used to calculate the “preference score,” and these values expressed as a percentage of time in the two conditioning compartments; 2) Total number of beam breaks in each conditioning compartment; and 3) Preference score expressed as a percentage of time in the 2 conditioning compartments. Only preference scores for the CS+ expressed as a percentage of time in the 2 conditioning compartments were reported. A CPP was determined when the test subject spent more time in the test sample-paired compartment versus the vehicle-paired compartment. Conversely, a conditioned place aversion (CPA) was determined when the test subject spent more time in the vehicle-paired compartment versus the sample-paired compartment. Therefore, possible outcomes included whether AME-1 causes a dependence, an aversive effect, or no effect. The total time spent in the nonpreferred compartment+total time spent in both conditioning compartments was expressed as a percentage, and used as a measure of “side preference.” Side preference infers a hedonic valence for the environmental cues of the compartment. Initial side preferences/biases (Habituated Score-H) were used to determine which of two compartments would be paired with the targeted interoceptive states. After two CS-UCS pairings, groups were retested for side preference (Test 1-1; Test 2-2). A significant change score from the initial habituation test scores reflected a conditioned place approach (* p<0.05).

[2] = after ingestion of Amanita mushrooms; cited from earlier work
[3] = stomach, liver and brain; cited from earlier work
[4] = system: levels of serotonin (5-hydroxytryptamine), noradrenaline and dopamine in the brain; conditions: male rats and mice, cited from earlier work
GABA receptor = conditions: cited from earlier work; for Mechanism of action at the GABA receptor: Brehm et al., Walker et al.
[5] = cited from earlier work

## COC(=O)[C@H]1[C@@H](OC(=O)c2ccccc2)C[C@@H]2CC[C@H]1N2C [Cocaine]
[1]; Habituation
  Conditioned place preference score for CS+ (percentage of time in the 2 conditioning compartments), Mean: 39.593
  Conditioned place preference score for CS+, LSMean (least squares mean): 39.162
[1]; Overall
  Conditioned place preference score for CS+ (percentage of time in the 2 conditioning compartments), Mean: 49.665
[1]; Overall, different from Groups 1 and 3, p < 0.05
  Conditioned place preference score for CS+, LSMean (least squares mean): 49.639^a, f
[1]; Test 1
  Conditioned place preference score for CS+ (percentage of time in the 2 conditioning compartments), Mean: 61.194
  Conditioned place preference score for CS+, LSMean (least squares mean): 61.877
[1]; Test 2
  Conditioned place preference score for CS+ (percentage of time in the 2 conditioning compartments), Mean: 48.208
  Conditioned place preference score for CS+, LSMean (least squares mean): 47.822
[1]; 20 mg/kg oral gavage, positive control
  Outcome of CPP testing: conditioned place preference: did produce a CPP

## N[C@H](C(=O)O)c1cc(O)no1 [ibotenic acid, (S)-2-Amino-2-(3-hydroxyisoxazol-5-yl) acetic acid]
[2]
  Time of detection in urine after ingestion: detected within an hour after ingestion
[3]
  Metabolic fate: metabolized by decarboxylation in the stomach, liver, and brain to equal amounts of muscimol
[4]; 16 mg/kg intraperitoneally
  Effect on brain levels of serotonin, noradrenaline and dopamine: affect the levels of serotonin (5-hydroxytryptamine), noradrenaline and dopamine in the brain
GABA receptor
  Mechanism of action at the GABA receptor: activation of the GABA receptor

## NCc1cc(=O)[nH]o1 [muscimol, 5-(Aminomethyl)-1,2-oxazol-3(2H)-one]
[2]
  Time of detection in urine after ingestion: detected within an hour after ingestion
[5]; IV 8 μmol/kg 3H-muscimol, 150 g male Sprague Dawley rat
  Amount of the dose injected that crossed to the brain: approximately 0.02%
[5]; IV 8 μmol/kg 3H-muscimol, male Sprague Dawley rat
  Muscimol amount in the brain: approximately 200 pmol/g tissue
[5]; IV 8 μmol/kg, male Sprague Dawley rat
  Distribution at various brain regions: highest muscimol concentration being in the substantia nigra, the colliculi and the hypothalamus
[5]; after intravenous injection, rat
  Time until blood concentration was below limits of detection: ≤ 180 min
[5]; intracerebroventricular injection 1200 nmol/kg, rat
  Distribution in the corneum stratum compared to the hypothalamus, hippocampus and cortex: approximately 2 times
[5]; intravenous injection 8 μmol/kg, rat
  Tolerability (reports of adverse effects or toxicity): well-tolerated
[4]; 3 mg/kg intraperitoneally
  Effect on brain levels of serotonin, noradrenaline and dopamine: affect the levels of serotonin (5-hydroxytryptamine), noradrenaline and dopamine in the brain
GABA receptor
  Mechanism of action at the GABA receptor: activation of the GABA receptor
GABA receptor; Worms et al.
  GABA agonist affinity and efficacy: GABA agonist of high affinity but of relatively low efficacy
